# According to US12629363B2, “Prophylaxis and treatment of angioedema” (PHARVARIS GMBH, priority 2020, dated 2026):
# Read-outs that look alike come from different tables or passages of the source.
# Key:
# [1] = molecular target: CYP3A4 (Homo sapiens, UniProt P08684); assay: In vitro CYP3A4 substrate data; assay type: in vitro ADME
# [2] = Ascending dose study 22-50 mg in healthy volunteers, safety and tolerability (Example 4); assay type: in vivo, human
# [3] = Single ascending dose study in healthy volunteers, plasma PK (Example 2); assay type: in vivo, human; conditions: for concentration at 0.25 h: read-out: C0.25h; for Vd/F: read-out: Vz/F
# [4] = Ascending dose study 22-50 mg in healthy volunteers, PK (Example 4); assay type: in vivo, human
# [5] = molecular target: T1, rat B2 receptor (Rattus norvegicus, UniProt P25023); assay: Antagonist potency in cells expressing rat B2 receptor; assay type: cell-based; conditions: compared with human B2 receptor
# T1 construct: expressed in transfected cells
# T1 sequence (P25023 1-396): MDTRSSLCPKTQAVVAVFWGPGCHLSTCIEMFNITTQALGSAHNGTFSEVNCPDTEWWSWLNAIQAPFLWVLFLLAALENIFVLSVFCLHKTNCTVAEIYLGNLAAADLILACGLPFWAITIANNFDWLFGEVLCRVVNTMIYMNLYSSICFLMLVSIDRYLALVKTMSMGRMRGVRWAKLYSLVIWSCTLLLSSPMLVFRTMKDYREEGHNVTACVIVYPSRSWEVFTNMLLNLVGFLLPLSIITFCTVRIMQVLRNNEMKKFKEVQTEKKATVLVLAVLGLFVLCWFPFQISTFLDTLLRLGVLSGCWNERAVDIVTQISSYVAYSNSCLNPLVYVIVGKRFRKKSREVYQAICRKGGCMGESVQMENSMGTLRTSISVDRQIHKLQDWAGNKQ
# Text: The bradykinin B2 receptor is well known for its species selective pharmacology (Paquet et al., Br. J. Pharmacol. (126), 1083-1090, 1999 (DOI: 10.1038/sj.bjp.0702403); Burgess et al., Br. J. Pharmacol. (129), 77-86, 2000 (DOI: 10.1038/sj.bjp.0703012)). […] Pharmacol. 11:916; DOI: 10.3389/fphar.2020.00916.
# [6] = Single ascending dose study in healthy volunteers, safety and tolerability (Example 2); assay type: in vivo, human
# Description: Safety was assessed by physical examination, vital signs, adverse events, safety laboratory and electrocardiogram (ECG) until 72 h post-dosing.
# [7] = 22 mg, HCHF breakfast vs fasted
# [8] = human, plasma, oral, 1 mg, fasted, mean
# [9] = human, plasma, oral, 2 mg, fasted, mean
# [10] = human, plasma, oral, 4.5 mg, fasted, mean
# [11] = human, plasma, oral, 12 mg, fasted, mean
# [12] = human, plasma, oral, 22 mg, after HCHF breakfast, mean
# [13] = human, plasma, oral, 22 mg, fasted, mean
# [14] = 22 to 50 mg (factor 2.27 increase), after a standardized breakfast
# [15] = 22 mg, after HCHF breakfast, N = 6
# Chain of CYP3A4 (P08684 whole entry): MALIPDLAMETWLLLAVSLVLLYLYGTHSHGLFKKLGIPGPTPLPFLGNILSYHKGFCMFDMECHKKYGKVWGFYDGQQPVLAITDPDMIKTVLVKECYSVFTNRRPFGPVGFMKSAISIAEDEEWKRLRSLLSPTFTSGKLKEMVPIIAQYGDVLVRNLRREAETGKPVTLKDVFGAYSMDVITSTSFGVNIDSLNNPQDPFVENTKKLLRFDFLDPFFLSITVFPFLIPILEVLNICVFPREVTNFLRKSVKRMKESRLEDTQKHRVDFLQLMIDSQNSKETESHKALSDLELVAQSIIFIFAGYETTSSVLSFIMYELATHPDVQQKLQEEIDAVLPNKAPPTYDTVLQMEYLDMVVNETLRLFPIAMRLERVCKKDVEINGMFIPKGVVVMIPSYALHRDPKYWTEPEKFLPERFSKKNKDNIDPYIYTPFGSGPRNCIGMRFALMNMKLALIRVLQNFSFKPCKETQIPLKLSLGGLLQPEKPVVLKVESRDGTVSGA
structure (smiles),measurement,setting,value
[2H][C@@](C)(NC(=O)COC(F)F)c1cc(F)cc(Cl)c1COc1cccc2c(-c3ncnn3C)cc(C)nc12 [compound of formula (I)],CYP3A4 substrate,[1],substrate of CYP3A4
same,"changes in vital signs, laboratory, or ECG parameters vs placebo",[2]; 22-50 mg single oral doses,no clinically significant changes
same,serious adverse effects,[2]; 22-50 mg single oral doses,no serious adverse effects reported
same,safety and tolerability,[2]; doses up to 40 mg under fasting and 50 mg under fed conditions,safe and well tolerated
same,CL/F,"[3]; 1 mg, fasted, mean",42.3 L/h
same,CL/F,"[3]; 2 mg, fasted, mean",33.8 L/h
same,CL/F,"[3]; 4.5 mg, fasted, mean",37.6 L/h
same,CL/F,"[3]; 12 mg, fasted, mean",40.9 L/h
same,time therapeutically effective plasma levels maintained,"[3]; 22 mg, HCHF breakfast cohort",more than 12 h
same,time to reach therapeutically effective plasma levels,"[3]; 22 mg, HCHF breakfast cohort",≤ 15 min
same,higher AUClast after HCHF breakfast,[3]; [7],49%
same,lower Cmax after HCHF breakfast,[3]; [7],32%
same,CL/F,"[3]; 22 mg, after HCHF breakfast, mean",25.3 L/h
same,Mean (±SD) C12h,"[3]; 22 mg, fasted",8.34 ± 4.24 ng/mL
same,Mean C24h,"[3]; 22 mg, fasted",1.12 ± 0.786 ng/mL
same,CL/F,"[3]; 22 mg, fasted, mean",31.5 L/h
same,time to reach therapeutic efficacious threshold plasma concentration,[3]; all doses,≤ 15 min
same,time plasma levels maintained at therapeutic efficacious threshold,[3]; doses of 12 mg and 22 mg,approximately 12 h
same,Tmax,"[3]; human, plasma, oral, 1 mg to 22 mg, fasting, read-out: Median tmax in the dose range",0.5 to 1 h
same,Tmax,"[3]; human, plasma, oral, 1 mg to 22 mg, fasting, read-out: range of individual tmax values",0.25 to 1.02 h
same,AUC(0-t),[3]; [8],33 ng·h/mL
same,Cmax,[3]; [8],11.1 ng/mL
same,concentration at 0.25 h,[3]; [8],5.99 ng/mL
same,concentration at 12 h,"[3]; human, plasma, oral, 1 mg, fasted, mean, read-out: C12h",0.528 ng/mL
same,Vd/F,[3]; [8],190 L
same,half-life,"[3]; human, plasma, oral, 1 mg, fasted, mean, read-out: t1/2 (converted)",3.49 h
same,Tmax,"[3]; human, plasma, oral, 1 mg, fasted, median, read-out: tmax",0.5 h
same,AUC(0-t),[3]; [9],66 ng·h/mL
same,Cmax,[3]; [9],19.8 ng/mL
same,concentration at 0.25 h,[3]; [9],12.9 ng/mL
same,concentration at 12 h,"[3]; human, plasma, oral, 2 mg, fasted, mean, read-out: C12h",0.81 ng/mL
same,Vd/F,[3]; [9],181 L
same,half-life,"[3]; human, plasma, oral, 2 mg, fasted, mean, read-out: t1/2 (converted)",4.26 h
same,Tmax,"[3]; human, plasma, oral, 2 mg, fasted, median, read-out: tmax",0.75 h
same,AUC(0-t),[3]; [10],129 ng·h/mL
same,Cmax,[3]; [10],32.9 ng/mL
same,concentration at 0.25 h,[3]; [10],13 ng/mL
same,concentration at 12 h,"[3]; human, plasma, oral, 4.5 mg, fasted, mean, read-out: C12h",1.93 ng/mL
same,Vd/F,[3]; [10],222 L
same,half-life,"[3]; human, plasma, oral, 4.5 mg, fasted, mean, read-out: t1/2 (converted)",4.36 h
same,Tmax,"[3]; human, plasma, oral, 4.5 mg, fasted, median, read-out: tmax",1 h
same,AUC(0-t),[3]; [11],369 ng·h/mL
same,Cmax,[3]; [11],97.3 ng/mL
same,concentration at 0.25 h,[3]; [11],60.3 ng/mL
same,concentration at 12 h,"[3]; human, plasma, oral, 12 mg, fasted, mean, read-out: C12h",5.58 ng/mL
same,Vd/F,[3]; [11],235 L
same,half-life,"[3]; human, plasma, oral, 12 mg, fasted, mean, read-out: t1/2 (converted)",4.25 h
same,Tmax,"[3]; human, plasma, oral, 12 mg, fasted, median, read-out: tmax",0.5 h
same,Tmax,"[3]; human, plasma, oral, 22 mg, HCHF breakfast vs fasted, read-out: delay of median tmax after HCHF breakfast",~2 h
same,AUC(0-t),[3]; [12],1020 ng·h/mL
same,Cmax,[3]; [12],145 ng/mL
same,concentration at 0.25 h,[3]; [12],48.3 ng/mL
same,concentration at 12 h,"[3]; human, plasma, oral, 22 mg, after HCHF breakfast, mean, read-out: C12h",19.6 ng/mL
same,Vd/F,[3]; [12],180 L
same,half-life,"[3]; human, plasma, oral, 22 mg, after HCHF breakfast, mean, read-out: t1/2 (converted)",5.31 h
same,Tmax,"[3]; human, plasma, oral, 22 mg, after HCHF breakfast, median, read-out: tmax",3 h
same,AUC(0-t),[3]; [13],681 ng·h/mL
same,Cmax,[3]; [13],213 ng/mL
same,concentration at 0.25 h,[3]; [13],143 ng/mL
same,concentration at 12 h,"[3]; human, plasma, oral, 22 mg, fasted, mean, read-out: C12h",8.34 ng/mL
same,Vd/F,[3]; [13],252 L
same,half-life,"[3]; human, plasma, oral, 22 mg, fasted, mean, read-out: t1/2 (converted)",5.61 h
same,Tmax,"[3]; human, plasma, oral, 22 mg, fasted, median, read-out: tmax",0.75 h
same,concentration at 12 h,"[3]; human, plasma, oral, 22 mg, fed (HCHF breakfast), read-out: Mean (±SD) C12h",19.6 ± 10.7 ng/mL
same,concentration at 24 h,"[3]; human, plasma, oral, 22 mg, fed (HCHF breakfast), read-out: Mean C24h",5.39 ± 5.47 ng/mL
same,half-life,"[3]; human, plasma, po, single oral doses 1-22 mg, read-out: mean t1/2 between doses",3.5 to 5.6 h
same,"dose proportionality of PK (Cmax, AUClast, AUCinf)","[3]; single oral dose 1 mg to 22 mg, fasting",Dose proportional PK
same,fold increase for mean AUC0-24h,[4]; [14],2.39 fold
same,fold increase for mean Cmax,[4]; [14],2.37 fold
same,dose proportionality of PK,[4]; 22 to 50 mg after a standardized breakfast,dose-proportional PK
same,change in AUCinf after a standardized breakfast,[4]; compared to fasting conditions,did not show a significant change
same,decrease in Cmax after a standardized breakfast,[4]; compared to fasting conditions,40-50%
same,"C12h and C24h plasma concentration, fed vs fasting","[4]; human, in vivo",higher under fed conditions
same,fold less potent in antagonizing the rat B2 receptor,[5],more than 1000 fold
same,Any adverse effects,"[6]; 1 mg, fasted, N = 6",2 (33.3%) n (%)
same,Any related adverse effects,"[6]; 1 mg, fasted, N = 6",0 n (%)
same,Any serious adverse effects,"[6]; 1 mg, fasted, N = 6",0 n (%)
same,Any adverse effects,"[6]; 2 mg, fasted, N = 6",1 (16.7%) n (%)
same,Any related adverse effects,"[6]; 2 mg, fasted, N = 6",0 n (%)
same,Any serious adverse effects,"[6]; 2 mg, fasted, N = 6",0 n (%)
same,Any adverse effects,"[6]; 4.5 mg, fasted, N = 6",1 (16.7%) n (%)
same,Any related adverse effects,"[6]; 4.5 mg, fasted, N = 6",0 n (%)
same,Any serious adverse effects,"[6]; 4.5 mg, fasted, N = 6",0 n (%)
same,Any adverse effects,"[6]; 12 mg, fasted, N = 14",5 (35.7%) n (%)
same,Any related adverse effects,"[6]; 12 mg, fasted, N = 14",2 (14.3%) n (%)
same,Any serious adverse effects,"[6]; 12 mg, fasted, N = 14",0 n (%)
same,Any adverse effects,[6]; [15],1 (16.7%) n (%)
same,Any related adverse effects,[6]; [15],0 n (%)
same,Any serious adverse effects,[6]; [15],0 n (%)
same,Any adverse effects,"[6]; 22 mg, fasted, N = 14",2 (14.3%) n (%)
same,Any related adverse effects,"[6]; 22 mg, fasted, N = 14",1 (7.1%) n (%)
same,Any serious adverse effects,"[6]; 22 mg, fasted, N = 14",0 n (%)
same,subjects with treatment-related adverse events,"[6]; 12 or 22 mg, gastrointestinal, mild severity",three
same,blood pressure fluctuations and orthostatic hypotension,[6]; single oral doses up to 22 mg,no clinically relevant fluctuations of blood pressure and no orthostatic hypotension
same,"changes in hematology, clinical chemistry, vital signs, or ECG",[6]; single oral doses up to 22 mg,no apparent trends or dose-related changes
same,safety and tolerability,[6]; single oral doses up to 22 mg,safe and well tolerated
